From US9758459B2, “Allosteric modulators of factor XIa as anticoagulant agents” (VIRGINIA COMMONWEALTH UNIVERSITY, priority 2012, dated 2017)
Values joined by “and” are separate entries in the source; they are usually repeats but may differ in a detail not shown here. Equal entries are not always repeated.

Tests used:
Format in all cases: biochemical
[1] = molecular target: T1, human factor XIa (Homo sapiens, UniProt P03951); assay: Direct inhibition of factor XIa, chromogenic substrate S-2366 hydrolysis assay
T1 construct: purchased Haematologic Technologies (Essex Junction, Vt.); host or cells: human plasma
Protocol: Solvent A consisted of 25 mM n-hexylamine in water containing 0.1% (v/v) formic acid, while solvent B consisted of 25 mM n-hexylamine in acetonitrile-water mixture (3:1 v/v) containing 0.1% (v/v) formic acid. […] The sample was first monitored for absorbance in the range of 190-400 nm and then directly introduced into the mass spectrometer. ESI-MS detection was performed in positive ion mode for which the capillary voltage was 4 kV, cone voltage was 20 V, desolvation temperature was 350° C. and nitrogen gas flow was maintained at 650 L/hr. Mass scans were collected in the range of 1000-2048 amu within 0.25 s and several of these added to enhanced signal-to-noise ratio. Direct Inhibition of Factor XIa. […] After 10 min incubation, 5 μL factor XIa substrate (345 μM) was rapidly added and the residual FXIa activity was measured from the initial rate of increase in absorbance at 405 nm. […] Relative residual FXIa activity at each concentration of the inhibitor was calculated from the ratio of FXIa activity in the presence and absence of the inhibitor. Logistic equation 1 was used to fit the dose-dependence of residual protease activity to obtain the potency (IC50) and efficacy (ΔY) of inhibition.
Direct Inhibition of Factor XIa by Sulfated QAOs was performed as described in Example 1.
The ability of the sulfated inositol analogs to inhibit factor XIa was studied using the in vitro assay described in Example 1. In this assay, the factor XIa enzyme is anticipated to hydrolyze a particular peptide linkage in the corresponding peptide substrate releasing p-nitroaniline which absorbs at wavelength of 405 nm giving a line slope corresponds to the enzyme activity. The line slope of no inhibitor status is considered as a reference slope and it depends on the relative concentrations of factor XIa enzyme and its substrate. Factor XIa enzyme concentration was decided to get appropriate reference slope of approximately 25-35, whereas the substrate concentration was set to be larger than its affinity to factor XIa enzyme under equilibrium condition, Km. In presence of potential factor XIa inhibitor, the enzyme capacity to hydrolyze the designated peptide linkage in the substrate gets diminished or completely abolished depending on the inhibitor concentration and efficacy. […] Such decreased slope reflects a drop in the catalytic enzyme activity of factor XIa.

[2] = test system: human plasma; assay: Activated partial thromboplastin time (APTT) plasma clotting assay; conditions: human plasma, concentration doubling clotting time
Protocol: (§1) Plasma clotting assays, prothrombin and activated partial thromboplastin time (PT and APTT, respectively), are routinely used to assess the anticoagulation potential of new enzyme inhibitors in an in vitro setting. Whereas PT measures the effect of an inhibitor on the extrinsic pathway of coagulation, APTT measures the effect on the intrinsic pathway.
(§2) Prothrombin Time (PT) and Activated Partial Thromboplastin Time (APTT) were assessed as described in Example 1.

[3] = test system: human plasma; assay: Prothrombin time (PT) plasma clotting assay; conditions: concentration doubling clotting time
Protocol: as §1, §2

[4] = molecular target: T2, recombinant wild type FXIa catalytic domain (FXIa-CD) (Homo sapiens, UniProt P03951, C500S); assay: 16S inhibition of recombinant FXIa catalytic domain, S2366 hydrolysis
T2 construct: eliminating the bond allows the catalytic domain of FXIa (FXIa-CD) to separate from the heavy chain; made in house; host or cells: HEK-293
Excerpt: (§3) FIG. 15. […] Solid lines represent sigmoidal dose-response fits.
(§4) Mutagenesis and Expression of Recombinant Factor XIa. Mutations in the FXIa 170 helix were introduced into a modified human FXI cDNA (FXI-Ser-362,482), which contains serine substitutions for Cys362 and Cys482 (FXI numbering), as described earlier in several papers.^7,8 A disulfide bond between these residues connects the heavy chains and catalytic domains after cleavage at the activation site, and eliminating the bond allows the catalytic domain of FXIa (FXIa-CD) to separate from the heavy chain. The basic residues of the FXIa 170-helix, Lys529, Arg530, Arg532, Lys535 and Lys539 in the FXI numbering system (correspond to residues 170, 171, 173, 175 and 179 in the chymotrypsinogen numbering system), were changed to alanine individually and as a group using a Quick Change kit (Stratagene, La Jolla, Calif.). cDNAs in expression vector pJVCMV were used to transfect HEK-293 cells as described. Stably expressing clones were expanded in 175 cm^2 flasks, and serum free media (Cellgro Complete, Mediatech, Herndon, Va.) was collected every 48 hours, supplemented with benzamidine (5 mM) and stored at −80° C. pending purification. Recombinant FXI was purified from conditioned media on an anti-fXI IgG 1G5.12 affinity column. After loading, the column was washed with 25 mM Tris-HCl, pH 7.4, 100 mM NaCl, and eluted with 2M NaSCN in the same buffer. Protein containing fractions were pooled, concentrated and dialyzed, and protein concentrations were determined by dye-binding assay (Bio-Rad). Recombinant wild-type FXI or FXI-CD (˜200-300 μg/ml) was activated with 5 μg/ml FXIIa at 37° C. Completion of activation was confirmed by SDS-PAGE. Activated preparations were passed over a 1G5.12 column to separate the protease from FXIIa. In the case of proteins prepared in FXI-Ser-362,482, the catalytic domains bind to the column, while the heavy chain passes through.
(§5) Heparin binds to FXIa in two sites—in the A3 domain (Lys252, Lys253, and Lys255) and in the catalytic domain (Lys529, Arg530, Arg532, Lys535, and Lys539). […]

[5] = molecular target: T3, Arg530Ala FXIa-CD single mutant (Homo sapiens, UniProt P03951, C500S/R548A); assay: 16S inhibition of Arg530Ala FXIa-CD, S2366 hydrolysis; conditions: Arg530 replaced by Ala
T3 construct: eliminating the bond allows the catalytic domain of FXIa (FXIa-CD) to separate from the heavy chain; made in house; host or cells: HEK-293
Excerpt: as §3
as §4, with “Recombinant FXI was purified from conditioned media on an anti-fXI IgG 1G5.12 affinity column. After loading, the column was washed with 25 mM Tris-HCl, pH 7.4, 100 mM NaCl, and eluted with 2M NaSCN in the same buffer.” left out, “Recombinant wild-type FXI or FXI-CD (˜200-300 μg/ml) was activated with 5 μg/ml FXIIa at 37° C. Completion of activation was confirmed by SDS-PAGE. Activated preparations were passed over a 1G5.12 column to separate the protease from FXIIa. In the case of proteins prepared in FXI-Ser-362,482, the catalytic domains bind to the column, while the heavy chain passes through.” left out

[6] = molecular target: T4, Lys529Ala,Arg530Ala,Arg532Ala FXIa-CD triple mutant (Homo sapiens, UniProt P03951, C500S/K547A/R548A/R550A); assay: 16S inhibition of triple mutant FXIa-CD, S2366 hydrolysis
T4 construct: eliminating the bond allows the catalytic domain of FXIa (FXIa-CD) to separate from the heavy chain; made in house; host or cells: HEK-293
Excerpt: as §3, §4, §5

[7] = molecular target: T5, Lys535Ala FXIa-CD (Homo sapiens, UniProt P03951, C500S/K553A); assay: 16S inhibition of Lys535Ala FXIa-CD; conditions: not shown
T5 construct: eliminating the bond allows the catalytic domain of FXIa (FXIa-CD) to separate from the heavy chain; made in house; host or cells: HEK-293
Excerpt: as §4, with “After loading, the column was washed with 25 mM Tris-HCl, pH 7.4, 100 mM NaCl, and eluted with 2M NaSCN in the same buffer.” left out, “Recombinant wild-type FXI or FXI-CD (˜200-300 μg/ml) was activated with 5 μg/ml FXIIa at 37° C. Completion of activation was confirmed by SDS-PAGE. Activated preparations were passed over a 1G5.12 column to separate the protease from FXIIa. In the case of proteins prepared in FXI-Ser-362,482, the catalytic domains bind to the column, while the heavy chain passes through.” left out

[8] = molecular target: T6, Lys539Ala FXIa-CD (Homo sapiens, UniProt P03951, C500S/K557A); assay: 16S inhibition of Lys539Ala FXIa-CD; conditions: not shown
T6 construct: eliminating the bond allows the catalytic domain of FXIa (FXIa-CD) to separate from the heavy chain; made in house; host or cells: HEK-293
Excerpt: as §4, with “After loading, the column was washed with 25 mM Tris-HCl, pH 7.4, 100 mM NaCl, and eluted with 2M NaSCN in the same buffer.” left out, “Recombinant wild-type FXI or FXI-CD (˜200-300 μg/ml) was activated with 5 μg/ml FXIIa at 37° C. Completion of activation was confirmed by SDS-PAGE. Activated preparations were passed over a 1G5.12 column to separate the protease from FXIIa. In the case of proteins prepared in FXI-Ser-362,482, the catalytic domains bind to the column, while the heavy chain passes through.” left out

[9] = molecular target: T1, human factor XIa; assay: Direct inhibition of factor XIa, chromogenic substrate S-2366 hydrolysis assay; conditions: FXIa-WT, 16S plus 30 μM polybrene

T2 sequence (P03951 388-625 C500S): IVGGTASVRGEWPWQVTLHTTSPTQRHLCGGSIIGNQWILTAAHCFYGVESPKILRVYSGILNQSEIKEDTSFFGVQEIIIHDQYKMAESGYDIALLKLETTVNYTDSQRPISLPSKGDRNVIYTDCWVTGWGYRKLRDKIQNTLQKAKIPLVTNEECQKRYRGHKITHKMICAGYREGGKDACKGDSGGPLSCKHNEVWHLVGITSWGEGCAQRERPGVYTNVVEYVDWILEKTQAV
T4 sequence (P03951 388-625 C500S/K547A/R548A/R550A): as the sequence (P03951 388-625 C500S) above, with K160A, R161A, R163A counted along it
T1 sequence (P03951 19-387 limits assumed): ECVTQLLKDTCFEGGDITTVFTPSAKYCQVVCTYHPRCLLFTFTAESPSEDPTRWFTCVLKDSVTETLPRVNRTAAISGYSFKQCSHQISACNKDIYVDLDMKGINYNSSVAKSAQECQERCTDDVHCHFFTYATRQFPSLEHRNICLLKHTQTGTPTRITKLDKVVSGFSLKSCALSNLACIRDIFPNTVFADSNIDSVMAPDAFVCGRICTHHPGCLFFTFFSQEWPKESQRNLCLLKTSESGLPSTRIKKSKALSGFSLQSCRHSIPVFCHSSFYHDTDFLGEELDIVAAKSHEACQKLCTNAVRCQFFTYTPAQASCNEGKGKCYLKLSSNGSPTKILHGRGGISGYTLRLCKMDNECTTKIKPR
T1 sequence (P03951 388-625 limits assumed): as the sequence (P03951 388-625 C500S) above, with S113C counted along it
T3 sequence (P03951 388-625 C500S/R548A): as the sequence (P03951 388-625 C500S) above, with R161A counted along it
T6 sequence (P03951 388-625 C500S/K557A): as the sequence (P03951 388-625 C500S) above, with K170A counted along it
T5 sequence (P03951 388-625 C500S/K553A): as the sequence (P03951 388-625 C500S) above, with K166A counted along it

SMILES: O=c1c2ccccc2nc(-c2ccc(OS(=O)(=O)O)cc2)n1CCCCCCn1cc(Cn2c(-c3ccc(OS(=O)(=O)O)cc3)nc3ccccc3c2=O)nn1 [Inhibitor 16S]
- proteolytic activity in the presence of 16S ([1]; full length wild-type FXIa, no polybrene): approximately 4%
- ΔY % (efficacy) ([1]; sulfated QAOs): 97 ± 1%
- IC50 ([1]; sulfated QAOs, pH 7.4, 37° C., read-out: IC50 (converted)): ~50 µM and 52 µM
- 2 × APTT [2]: 950 µM
- 2 × PT [3]: >2000 µM
- inhibition level after addition of polybrene ([4]; FXIa-CD, 16S plus 30 μM polybrene): 13.1±0.7%
- proteolytic activity in the presence of 16S ([4]; FXIa-CD, no polybrene): ~6%
- inhibition of FXIa-CD compared with wild-type enzyme ([4]; not shown): as potently as the wild-type enzyme
- increase in IC50 versus FXIa-CD [5]: 2 fold
- proteolytic activity in the presence of 16S ([6]; FXIa-CD triple mutations, no polybrene): ~5%
- inhibition level after addition of polybrene ([6]; FXIa-CD with triple mutations, 16S plus 30 μM polybrene): 7.1±1.2%
- reduction of potency versus FXIa-CD ([6]; Lys529, Arg530 and Arg532 replaced by Ala): approximately 5 fold
- change in IC50 from wild-type FXIa-CD [7]: no change in IC50
- change in IC50 from wild-type FXIa-CD [8]: no change in IC50
- inhibition level after addition of polybrene [9]: 9.2±1.0%
